The term IC50 denotes the concentration that inhibits the measured activity by half.

Like-named read-outs stand apart in the source and are kept apart here.

For one experiment, the target named is human TLR7 (Homo sapiens (Human), UniProt Q9NYK1). The experiment can be described thus: TLR7 inhibition reporter assay (HEK-Blue SEAP). Format: cell-based. (In general: Reporter assays use an easily measured gene product as a stand-in for the process of interest.)
Another experiment has as its target human TLR9 (Homo sapiens (Human), UniProt Q9NR96). The experiment is described as follows: TLR9 inhibition reporter assay (HEK-Blue SEAP).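 Also: SEAP driven by an IFN-β minimal promoter with NF-κB and AP-1 sites, read after 22 h, compounds dosed 0.05 nM–50 µM, inhibition scaled between agonist plus DMSO and reference-inhibitor wells.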
The target of a further experiment is human TLR8 (Homo sapiens (Human), UniProt Q9NR97). The experiment can be described thus: TLR8 inhibition reporter assay (HEK-Blue SEAP).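 Also: SEAP driven by IFN-β minimal promoter carrying NF-κB and AP-1 sites, compounds dosed 0.05 nM to 50 µM for 22 h, inhibition scaled between agonist-plus-DMSO and reference-inhibitor wells.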
The mark [1] stands for this setting: HEK-Blue cells overexpressing human TLR7, SEAP reporter, gardiquimod 7.5 μM.
Where [2] appears, read: read-out: TLR9 IC50, HEK-Blue cells overexpressing human TLR9, SEAP reporter, ODN2006 5 nM.
[3] abbreviates: read-out: TLR8 IC50, HEK-Blue cells overexpressing human TLR8, SEAP reporter, R848 15.9 μM.
The mark [4] stands for this setting: HEK-Blue cells overexpressing human TLR7, gardiquimod 7.5 μM stimulation, SEAP reporter.
[5] abbreviates: TLR9 IC50, HEK-Blue cells overexpressing human TLR9, ODN2006 5 nM stimulation, SEAP reporter.
Setting [6] is: TLR8 IC50, HEK-Blue cells overexpressing human TLR8, R848 15.9 μM stimulation, SEAP reporter.
The mark [7] stands for this setting: read-out: TLR9 IC50, HEK-Blue cells overexpressing human TLR9, ODN2006 5 nM stimulation, SEAP reporter.
Setting [8] is: read-out: TLR8 IC50, HEK-Blue cells overexpressing human TLR8, R848 15.9 μM stimulation, SEAP reporter.
Where [9] appears, read: HEK-Blue human TLR7 cells, gardiquimod 7.5 μM.
[10] abbreviates: TLR9 IC50, HEK-Blue human TLR9 cells, ODN2006 5 nM.
The mark [11] stands for this setting: TLR8 IC50, HEK-Blue human TLR8 cells, R848 15.9 μM.
Setting [12] is: read-out: TLR9 IC50, HEK-Blue human TLR9 cells, ODN2006 5 nM.
The mark [13] stands for this setting: read-out: TLR8 IC50, HEK-Blue human TLR8 cells, R848 15.9 μM.

Sequence of human TLR9 (Q9NR96 26-1032): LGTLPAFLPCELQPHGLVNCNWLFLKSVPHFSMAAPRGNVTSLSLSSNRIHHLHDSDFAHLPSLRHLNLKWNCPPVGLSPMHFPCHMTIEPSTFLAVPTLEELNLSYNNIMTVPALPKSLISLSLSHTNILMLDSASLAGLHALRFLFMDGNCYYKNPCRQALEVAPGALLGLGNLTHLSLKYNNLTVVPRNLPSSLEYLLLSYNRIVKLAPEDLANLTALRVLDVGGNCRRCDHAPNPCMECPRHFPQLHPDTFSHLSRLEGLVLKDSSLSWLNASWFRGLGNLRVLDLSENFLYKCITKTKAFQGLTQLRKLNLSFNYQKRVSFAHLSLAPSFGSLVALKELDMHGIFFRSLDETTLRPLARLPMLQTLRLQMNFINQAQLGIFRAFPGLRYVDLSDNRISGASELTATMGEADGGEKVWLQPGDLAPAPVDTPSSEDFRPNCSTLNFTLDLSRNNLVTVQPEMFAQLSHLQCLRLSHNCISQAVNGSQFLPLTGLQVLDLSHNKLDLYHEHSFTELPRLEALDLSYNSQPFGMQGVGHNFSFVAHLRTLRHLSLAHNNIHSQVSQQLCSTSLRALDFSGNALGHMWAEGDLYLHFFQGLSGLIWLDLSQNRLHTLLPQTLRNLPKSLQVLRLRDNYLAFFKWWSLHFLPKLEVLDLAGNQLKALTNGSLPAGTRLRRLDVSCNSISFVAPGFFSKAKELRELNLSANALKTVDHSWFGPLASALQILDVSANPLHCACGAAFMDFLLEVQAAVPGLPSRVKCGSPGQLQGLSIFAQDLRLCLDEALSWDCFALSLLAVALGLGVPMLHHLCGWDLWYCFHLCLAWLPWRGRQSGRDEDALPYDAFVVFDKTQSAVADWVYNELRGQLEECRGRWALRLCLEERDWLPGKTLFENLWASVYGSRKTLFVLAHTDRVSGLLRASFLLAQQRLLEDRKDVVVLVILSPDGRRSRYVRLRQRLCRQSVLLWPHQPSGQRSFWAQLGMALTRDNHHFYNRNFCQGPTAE
Sequence of human TLR7 (Q9NYK1 27-1049): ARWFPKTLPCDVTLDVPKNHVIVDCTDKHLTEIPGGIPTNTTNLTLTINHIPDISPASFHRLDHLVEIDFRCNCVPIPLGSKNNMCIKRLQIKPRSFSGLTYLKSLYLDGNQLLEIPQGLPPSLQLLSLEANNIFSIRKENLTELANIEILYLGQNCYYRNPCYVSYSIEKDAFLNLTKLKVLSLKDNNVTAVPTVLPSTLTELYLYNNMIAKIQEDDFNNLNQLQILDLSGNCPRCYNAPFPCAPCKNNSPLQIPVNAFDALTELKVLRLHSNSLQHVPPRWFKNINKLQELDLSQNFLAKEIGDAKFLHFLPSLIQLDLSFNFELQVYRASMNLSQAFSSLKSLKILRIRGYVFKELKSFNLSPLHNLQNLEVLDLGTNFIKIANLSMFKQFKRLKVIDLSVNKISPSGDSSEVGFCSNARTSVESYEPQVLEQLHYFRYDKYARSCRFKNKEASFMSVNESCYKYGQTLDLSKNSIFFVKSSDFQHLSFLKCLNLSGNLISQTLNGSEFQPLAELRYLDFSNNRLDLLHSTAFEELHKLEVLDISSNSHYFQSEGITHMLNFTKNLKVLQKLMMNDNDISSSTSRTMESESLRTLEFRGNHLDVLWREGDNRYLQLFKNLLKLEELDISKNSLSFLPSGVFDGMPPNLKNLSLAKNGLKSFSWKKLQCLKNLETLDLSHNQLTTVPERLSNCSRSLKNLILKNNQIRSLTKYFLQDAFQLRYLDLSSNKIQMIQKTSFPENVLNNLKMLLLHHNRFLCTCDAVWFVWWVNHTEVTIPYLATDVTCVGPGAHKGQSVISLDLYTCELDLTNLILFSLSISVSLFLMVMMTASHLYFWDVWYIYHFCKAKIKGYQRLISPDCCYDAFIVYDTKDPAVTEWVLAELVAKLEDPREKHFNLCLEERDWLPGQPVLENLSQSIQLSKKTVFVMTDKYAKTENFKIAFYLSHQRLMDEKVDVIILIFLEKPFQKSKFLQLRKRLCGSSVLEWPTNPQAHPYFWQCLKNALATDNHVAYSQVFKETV
Sequence of human TLR8 (Q9NR97 27-1041): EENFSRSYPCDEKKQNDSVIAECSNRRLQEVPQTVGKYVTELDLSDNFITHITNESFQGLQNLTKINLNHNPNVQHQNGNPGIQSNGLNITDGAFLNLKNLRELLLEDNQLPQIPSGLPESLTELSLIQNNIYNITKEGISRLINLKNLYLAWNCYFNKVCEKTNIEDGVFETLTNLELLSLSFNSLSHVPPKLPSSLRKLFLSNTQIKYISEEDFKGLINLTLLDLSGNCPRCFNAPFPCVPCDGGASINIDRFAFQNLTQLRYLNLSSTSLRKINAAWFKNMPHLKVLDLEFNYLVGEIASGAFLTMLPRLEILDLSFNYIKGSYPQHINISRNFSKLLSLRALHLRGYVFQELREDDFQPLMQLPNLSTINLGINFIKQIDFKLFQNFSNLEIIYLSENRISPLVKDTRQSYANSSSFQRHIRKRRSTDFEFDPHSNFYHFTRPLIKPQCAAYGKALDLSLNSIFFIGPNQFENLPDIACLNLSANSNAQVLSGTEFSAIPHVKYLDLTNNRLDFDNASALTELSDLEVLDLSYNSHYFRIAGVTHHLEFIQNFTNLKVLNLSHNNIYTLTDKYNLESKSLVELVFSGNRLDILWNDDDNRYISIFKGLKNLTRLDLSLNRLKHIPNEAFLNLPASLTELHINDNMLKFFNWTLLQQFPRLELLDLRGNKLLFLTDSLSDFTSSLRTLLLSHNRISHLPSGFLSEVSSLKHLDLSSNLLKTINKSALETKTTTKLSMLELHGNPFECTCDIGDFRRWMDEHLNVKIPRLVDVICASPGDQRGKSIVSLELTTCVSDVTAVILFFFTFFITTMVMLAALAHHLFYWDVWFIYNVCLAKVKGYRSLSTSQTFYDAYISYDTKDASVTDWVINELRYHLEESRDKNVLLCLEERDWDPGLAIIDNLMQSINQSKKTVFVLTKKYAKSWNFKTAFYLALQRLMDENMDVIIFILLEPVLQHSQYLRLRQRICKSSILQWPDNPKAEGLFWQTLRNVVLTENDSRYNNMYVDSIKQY

Turning to “4-((3-isopropyl-2-(8-methoxy-[1,2,4]triazolo[1,5-a]pyridin-6-yl)-1H-pyrrolo[3,2-b]pyridin-5-yl)oxy)-N,N-dipropylcyclohexan-1-amine [Example 605]”, the half-inhibitory concentration (IC50) came to 13 nM against human TLR7 (setting [1]), 4240 nM at human TLR9 (setting [2]) and 17 nM at human TLR8 (setting [3]).

Take `COc1cc(-c2[nH]c3ccc(C4CCC(N)C4)nc3c2C(C)C)cn2ncnc12` (racemic) [Example 7, 3-(3-isopropyl-2-(8-methoxy-[1,2,4]triazolo[1,5-a]pyridin-6-yl)-1H-pyrrolo[3,2-b]pyridin-5-yl)cyclopentan-1-amine]: the 50% inhibitory concentration (IC50) at human TLR7 (setting [4]) came out at 4.4 nM; on human TLR9 (setting [5]), 8120 nM; against human TLR8 (setting [6]) it was 52 nM.

In the case of `COc1cc(-c2[nH]c3ccc(C4CCC(N)C4)nc3c2C(C)C)cn2ncnc12` (racemic) [Example 9, 3-(3-isopropyl-2-(8-methoxy-[1,2,4]triazolo[1,5-a]pyridin-6-yl)-1H-pyrrolo[3,2-b]pyridin-5-yl)cyclopentan-1-amine], the IC50 on human TLR7 (setting [4]) was 1.7 nM; at human TLR9 (setting [5]) it was 2250 nM; on human TLR8 (setting [6]) it was 8.2 nM.

As for `Cc1c(-c2[nH]c3ccc(N4CCC(NC5COC5)C4)nc3c2C(C)C)cn2ncnc2c1C` (racemic) [Example 164, 1-(2-(7,8-dimethyl-[1,2,4]triazolo[1,5-a]pyridin-6-yl)-3-isopropyl-1H-pyrrolo[3,2-b]pyridin-5-yl)-N-(oxetan-3-yl)pyrrolidin-3-amine], the IC50 against human TLR7 (setting [4]) was 33 nM; at human TLR9 (setting [7]), 19800 nM; on human TLR8 (setting [8]), 2 nM.

On to `COc1cc(-c2[nH]c3ccc(C4CCC(N)C4)nc3c2C(C)C)cn2ncnc12` (single isomer, unassigned) [Example 8, 3-(3-isopropyl-2-(8-methoxy-[1,2,4]triazolo[1,5-a]pyridin-6-yl)-1H-pyrrolo[3,2-b]pyridin-5-yl)cyclopentan-1-amine], for which the values for the IC50 on human TLR7 (setting [4]), against human TLR9 (setting [5]) and against human TLR8 (setting [6]) were 4.7 nM, 8550 nM and 21 nM, respectively.

On to `CNC1CCC(c2ccc3[nH]c(-c4cn5ncnc5c(C)c4C)c(C(C)C)c3n2)CC1` (single isomer, unassigned) [Example 367, 4-(2-(7,8-dimethyl-[1,2,4]triazolo[1,5-a]pyridin-6-yl)-3-isopropyl-1H-pyrrolo[3,2-b]pyridin-5-yl)-N-methylcyclohexanamine], for which the IC50 amounted to 1.5 nM against human TLR7 (setting [4]), 838 nM on human TLR9 (setting [7]) and 3.5 nM on human TLR8 (setting [8]).

As for `CNC1CCC(c2ccc3[nH]c(-c4cn5ncnc5c(C)c4C)c(C(C)C)c3n2)CC1` (single isomer, unassigned) [Example 369, 4-(2-(7,8-dimethyl-[1,2,4]triazolo[1,5-a]pyridin-6-yl)-3-isopropyl-1H-pyrrolo[3,2-b]pyridin-5-yl)-N-methylcyclohexanamine], the IC50 against human TLR7 (setting [4]) stood at 0.46 nM; on human TLR9 (setting [7]) it was 402 nM; at human TLR8 (setting [8]), 1.3 nM.

With `Cc1c(-c2[nH]c3ccc(C4CCC(N(C)C5COC5)CC4)nc3c2C(C)C)cn2ncnc2c1C` (single isomer, unassigned) [Example 424, N-(4-(2-(7,8-dimethyl-[1,2,4]triazolo[1,5-a]pyridin-6-yl)-3-isopropyl-1H-pyrrolo[3,2-b]pyridin-5-yl)cyclohexyl)-N-methyloxetan-3-amine], the 50% inhibitory concentration (IC50) against human TLR7 (setting [1]) was found to be 0.89 nM; at human TLR9 (setting [2]), 1530 nM; at human TLR8 (setting [3]), 0.74 nM.

For `Cc1c(-c2[nH]c3ccc(C4CCC(N(C)C5COC5)CC4)nc3c2C(C)C)cn2ncnc2c1C` (single isomer, unassigned) [Example 430, N-(4-(2-(7,8-dimethyl-[1,2,4]triazolo[1,5-a]pyridin-6-yl)-3-isopropyl-1H-pyrrolo[3,2-b]pyridin-5-yl)cyclohexyl)-N-methyloxetan-3-amine], the half-maximal inhibitory concentration (IC50) came to 13 nM against human TLR7 (setting [1]), 15100 nM on human TLR9 (setting [2]) and 14 nM on human TLR8 (setting [3]).

Consider `[2H]C([2H])([2H])N(CC(=O)N1CCN(c2ccc3[nH]c(-c4cn5ncnc5c(C)c4C)c(C(C)C)c3n2)CC1)C([2H])([2H])[2H]` (single isomer, unassigned) [Example 831], for which the IC50 on human TLR7 (setting [9]) is 1.5 nM; on human TLR9 (setting [10]), 8550 nM; against human TLR8 (setting [11]), 2.3 nM.

As to `[2H]C1([2H])N(C(=O)CN(C)C)C([2H])([2H])C([2H])([2H])N(c2ccc3[nH]c(-c4cn5ncnc5c(C)c4C)c(C(C)C)c3n2)C1([2H])[2H]` (single isomer, unassigned) [Example 858], the values for the IC50 at human TLR7 (setting [9]), against human TLR9 (setting [10]) and at human TLR8 (setting [11]) were 1.1 nM, 7130 nM and 1.3 nM, respectively.

Consider `[2H]C([2H])([2H])N(CC(=O)N1C([2H])([2H])C([2H])([2H])N(c2ccc3[nH]c(-c4cn5ncnc5c(C)c4C)c(C(C)C)c3n2)C([2H])([2H])C1([2H])[2H])C([2H])([2H])[2H]` (single isomer, unassigned) [Example 859], for which the IC50 against human TLR7 (setting [9]) was determined as 0.97 nM; at human TLR9 (setting [10]), 7310 nM; on human TLR8 (setting [11]), 1.5 nM.

As for `Cc1c(-c2[nH]c3ccc(N4CC(N5CCOCC5)C4)nc3c2C(C)C)cn2ncnc2c1C` [Example 39, 4-(1-(2-(7,8-dimethyl-[1,2,4]triazolo[1,5-a]pyridin-6-yl)-3-isopropyl-1H-pyrrolo[3,2-b]pyridin-5-yl)azetidin-3-yl)morpholine], the values for the IC50 against human TLR7 (setting [4]) and at human TLR8 (setting [8]) were 40 nM and 4.8 nM, respectively.

Regarding `CC(C)c1c(-c2cn(C)c3ncccc23)[nH]c2ccc(N3CCC(N(CC#N)CC#N)CC3)nc12` [Example 52], the IC50 on human TLR7 (setting [4]) stood at 7.9 nM; on human TLR8 (setting [8]), 20 nM.

On to `COc1cc(-c2[nH]c3ccc(N4CCN(C5CCOC5)CC4)nc3c2C(C)C)cn2ncnc12` (stereo not drawn) [Example 103], for which the values for the half-maximal inhibitory concentration (IC50) on human TLR7 (setting [4]) and on human TLR8 (setting [8]) were 7.3 nM and 2.6 nM, respectively.

Regarding `CC(C)c1c(-c2cc(CO)c3ncnn3c2)[nH]c2ccc(C3CCC(NCC(=O)N(C)C)CC3)nc12` (stereo not drawn) [Example 216], the IC50 on human TLR9 (setting [7]) is 416 nM; at human TLR8 (setting [8]) it was 18 nM.

As to `Cc1cnc(CNC2CCC(c3ccc4[nH]c(-c5cc(CO)c6ncnn6c5)c(C(C)C)c4n3)CC2)cn1` (stereo not drawn) [Example 217], the IC50 on human TLR9 (setting [7]) stood at 522 nM; on human TLR8 (setting [8]), 8.6 nM.

Take `CC(C)c1c(-c2cc(CO)c3ncnn3c2)[nH]c2ccc(C3CCC(NCC(=O)N(C)C)CC3)nc12` (stereo not drawn) [Example 222]: the IC50 on human TLR9 (setting [7]) turned out to be 657 nM; on human TLR8 (setting [8]), 21 nM.

For `COc1cc(-c2[nH]c3ccc(C4CCC(NCC5(S(C)(=O)=O)CC5)CC4)nc3c2C(C)C)cn2ncnc12` (stereo not drawn) [Example 223], the IC50 at human TLR9 (setting [7]) is 485 nM; on human TLR8 (setting [8]), 1.4 nM.

For the compound `COc1cc(-c2[nH]c3cc(C)c(C4CCC(NCC(C)(C)O)CC4)nc3c2C(C)C)cn2ncnc12` (stereo not drawn) [Example 321], the IC50 turned out to be 1040 nM on human TLR9 (setting [7]) and 3 nM on human TLR8 (setting [8]).

Take `COCCNC1CCC(c2nc3c(C(C)C)c(-c4cc(OC)c5ncnn5c4)[nH]c3cc2C)CC1` (stereo not drawn) [Example 335]: the IC50 on human TLR9 (setting [7]) worked out at 1930 nM; at human TLR8 (setting [8]), 4 nM.

For the compound `Cc1c(-c2[nH]c3ccc(C4CCC(N(C)Cc5ncccn5)CC4)nc3c2C(C)C)cn2ncnc2c1C` (stereo not drawn) [Example 417], the values for the IC50 on human TLR9 (setting [2]) and at human TLR8 (setting [3]) were 9500 nM and 7.1 nM, respectively.

For `Cc1c(-c2[nH]c3ccc(C4CCC(N(C)Cc5ncccn5)CC4)nc3c2C(C)C)cn2ncnc2c1C` (stereo not drawn) [Example 418], the half-inhibitory concentration (IC50) at human TLR9 (setting [2]) amounted to 2860 nM; at human TLR8 (setting [3]) it was 3.9 nM.

As to `Cc1c(-c2[nH]c3ccc(C4CCC(N5CC6(COC6)C5)CC4)nc3c2C(C)C)cn2ncnc2c1C` (stereo not drawn) [Example 435], the concentration for half-maximal inhibition (IC50) is 2180 nM at human TLR9 (setting [2]) and 5.5 nM on human TLR8 (setting [3]).

`Cc1c(-c2[nH]c3ccc(C4CCC(N5CC(C#N)C5)CC4)nc3c2C(C)C)cn2ncnc2c1C` (stereo not drawn) [Example 436]: the IC50 came out at 8940 nM at human TLR9 (setting [2]) and 27 nM on human TLR8 (setting [3]).

As to `Cc1c(-c2[nH]c3ccc(C4CCC(N5CC6(COC6)C5)CC4)nc3c2C(C)C)cn2ncnc2c1C` (stereo not drawn) [Example 437], the IC50 at human TLR9 (setting [2]) amounted to 3750 nM; on human TLR8 (setting [3]), 11 nM.

For `Cc1c(-c2[nH]c3ccc(C4CCC(N5CCN(C)C(=O)C5)CC4)nc3c2C(C)C)cn2ncnc2c1C` (stereo not drawn) [Example 443], the IC50 against human TLR7 (setting [1]) was determined as 15 nM; on human TLR8 (setting [3]), 57 nM.

Consider `Cc1c(-c2[nH]c3ccc(C4CCC(N(CCO)CC(=O)N(C)C)CC4)nc3c2C(C)C)cn2ncnc2c1C` (stereo not drawn) [Example 468], for which the IC50 against human TLR7 (setting [1]) worked out at 46 nM; on human TLR8 (setting [3]), 99 nM.

As for `Cc1cc(-c2[nH]c3ccc(C4CCN(C5COC5)CC4)nc3c2C(C)C)cn(C)c1=O` [Example 528], the values for the IC50 at human TLR9 (setting [2]) and on human TLR8 (setting [3]) were 5700 nM and 23 nM, respectively.

Regarding `Cc1c(-c2[nH]c3ccc(N4C[C@H]5C[C@@H](C4)N5C(=O)CN(C)C)nc3c2C(C)C)cn2ncnc2c1C` [Example 754], the IC50 turned out to be 5430 nM at human TLR9 (setting [2]) and 1.7 nM on human TLR8 (setting [3]).

On to `Cc1c(-c2[nH]c3ccc(N4C[C@H]5C[C@@H](C4)N5C(C)C)nc3c2C(C)C)cn2ncnc2c1C` [Example 755], for which the IC50 at human TLR9 (setting [2]) was 3730 nM; at human TLR8 (setting [3]) it was 6.2 nM.

For `Cc1c(-c2[nH]c3ccc(N4CCN(C(=O)CN5CCC(F)C5)CC4)nc3c2C(C)C)cn2ncnc2c1C` (stereo not drawn) [Example 917], the IC50 on human TLR9 (setting [12]) amounted to 43200 nM; on human TLR8 (setting [13]) it was 2.9 nM.

For `Cc1c(-c2[nH]c3ccc(N4CCN(C(=O)CN5CC6(CCO6)C5)CC4)nc3c2C(C)C)cn2ncnc2c1C` [Example 918], the IC50 on human TLR9 (setting [12]) is 20600 nM; on human TLR8 (setting [13]), 6.3 nM.
